# Assay results: patent US11912668B2, “GCN2 and perk kinase inhibitors and methods of use thereof” (Deciphera Pharmaceuticals, LLC, priority 2020, dated 2024)
# Tests used:
# [1] = tested on: phospho-GCN2 (Thr899) in HCT116 colorectal cancer cells; test: HCT116 amino acid starved (-AA) phospho-GCN2 assay (Western blot); type: cell-based; details: Homo sapiens, HCT-116, 4 h, read-out: HCT116-AA pGCN2 Western Blot
# Description: (§1) HCT116 colorectal cancer cells (catalog #CCL-247) were obtained from the American Type Culture Collect (ATTC, Manassas, VA). Briefly, cells were grown in RPMI 1640 supplemented with 10% heat inactivated fetal bovine serum (Invitrogen, Carlsbad, CA) and 1% Penicillin/Streptomycin/L-Glutamine at 37° C., 5% CO2, and 95% humidity. Cells were expanded until reaching 70-95% confluency at which point they were subcultured or harvested for assay use. Cells were seeded in 12-well culture plate at five hundred thousand cells per well in 1 mL complete growth medium and incubated overnight at 37° C., 5% CO2, and 95% humidity. The next day each well was replaced with 1 mL Earle's Balanced Salt Solution (EBSS, Invitrogen, Carlsbad, CA) supplemented with 10% Dialyzed Fetal Bovine Serum, 5.5 mM Glucose, 1% Penicillin/Streptomycin and 1% Vitamin solution (thermo #11120052). A serial dilution of test compound was dispensed into well. Plates were incubated for 4 h at 37° C., 5% CO2, and 95% humidity. At the end of the incubation, cells were washed with PBS supplemented with 1× Halt protease inhibitor, 1× Halt phosphatase inhibitor, 1× Sigma phosphatase inhibitor cocktail 2 and 1×EDTA and then lysed with M-PER Mammalian Protein Extraction Reagent supplemented with 3× of the inhibitor mix as described above. Cell lysates were sonicated with water bath sonicator (Qsonica, Newtown, CT) and supernatants were boiled with SDS buffer and reducing agent. Western blot was performed on each lysate to quantify phospho-GCN2 (Thr899), total GCN2, ATF4 and beta-Actin. Membranes were imaged with LI-COR Odyssey CLx Imaging System (LI-COR, Lincoln, NE). Data were analyzed using GraphPad Prism software (GraphPad, San Diego, CA) to calculate IC50 values.
# PERK kinase = PERK kinase (Homo sapiens (Human), UniProt Q9NZJ5); test: Biochemical assay for PERK (coupled pyruvate kinase/lactate dehydrogenase assay); details: 1 mM ATP, rate from 2-3 h time frame
# Description: Activity of PERK kinase was determined spectroscopically using a coupled pyruvate kinase/lactate dehydrogenase assay that continuously monitors the ATP hydrolysis-dependent oxidation of NADH (e.g., Schindler et al. Science (2000) 289: 1938-1942). Assays were conducted in 384-well plates (100 μL final volume) using 10 nM PERK (from Beryllium), 0.25 mg/mL Myelin Basic Protein substrate, 1.5 units pyruvate kinase, 2.1 units lactate dehydrogenase, 1 mM phosphoenol pyruvate, 0.28 mM NADH and 1 mM ATP in assay buffer (100 mM Tris, pH 7.5, 15 mM MgCl2, 0.5 mM DTT, 0.004% (w/v) BSA, and 0.004% Triton X-100). Inhibition of PERK was measured by adding serial diluted test compound (final assay concentration of 1% DMSO). A decrease in absorption at 340 nm was monitored continuously for 6 hours at 30° C. on a multi-mode microplate reader (BioTek). The reaction rate was calculated using the 2-3 h time frame. The reaction rate at each concentration of compound was converted to percent inhibition using controls (i.e. reaction with no test compound and reaction with a known inhibitor) and IC50 values were calculated using software routines in Prism (GraphPad software).
# [2] = tested on: ATF4 in HCT116 colorectal cancer cells; test: HCT116 amino acid starved (-AA) ATF4 assay (Western blot); type: cell-based; details: Homo sapiens, HCT-116, 4 h
# Description: as §1
# GCN2 kinase = GCN2 kinase (Homo sapiens (Human), UniProt Q9P2K8); test: Biochemical assay for GCN2 (TR-FRET kinase activity assay); details: 1 mM ATP, 3-hour incubation
# Description: Activity of GCN2 kinase was determined using a TR-FRET kinase activity assay (e.g. Riddle et al. Analytical Biochemistry (2006) 356(1) 108-116). Assays were conducted in 384-well plates (13 μL assay volume) using 2 nM GCN2 (Carna Biosciences), 130 nM GFP-EIf2α (Invitrogen), 0.2 mg/mL E. coli tRNA (sigma) and 1 mM ATP in kinase buffer (Invitrogen). Inhibition of GCN2 was measured by adding serial diluted test compound (final assay concentration of 0.5% DMSO) followed by a 3-hour incubation. Tb-peIF2α (pSer52) antibody (Invitrogen) (2 nM final assay concentration) in kinase buffer containing ETDA (final assay concentration of 20 mM) was added. After a 60 min incubation at room temperature, TR-FRET was monitored using an excitation wavelength of 340 nm and emission wavelengths of 490 nm and 520 nm. The emission ratio (520/490) at each compound concentration of was converted to percent inhibition using controls (i.e. reaction with no test compound and reaction with a known inhibitor) and IC50 values were calculated by fitting a four-parameter sigmoidal curve to the data using Prism (GraphPad software).
# CCRF-CEM leukemia cells = test: CCRF-CEM ASNase cell proliferation assay, phenotypic assay for cellular inhibition of GCN2; type: cell-based; details: Homo sapiens; ASNase treated CCRF-CEM cells, 1 mU/mL ASNase, 72 h
# Description: CCRF-CEM leukemia cells (catalog #CCL-116) were obtained from the American Type Culture Collect (ATTC, Manassas, VA). Cells were grown in RPMI-1640 medium supplemented with 10% heat-inactivated fetal bovine serum (Invitrogen, Carlsbad, CA) and 1% Penicillin/Streptomycin/L-Glutamine at 37° C., 5% CO2, and 95% humidity. Cells were expanded until reaching one million cells per mL at which time they are subcultured or harvested for assay use. Ten thousand cells per well in 200 μL RPMI-1640 supplemented with 10% heat-inactivated fetal bovine serum and 1% Penicillin/Streptomycin were dispensed into a 96-well black clear bottom plate. A serial dilution of test compound and 1 mU/mL ASNase was added in triplicate and plates were incubated for 72 h at 37° C., 5% CO2, and 95% humidity. At the end of the incubation, 40 μL of a […] solution of resazurin (Sigma, St. Louis, MO) in PBS was added to each well of the plate and plates were incubated for an additional 6 h at 37° C., 5% CO2, and 95% humidity. Plates were read on a Synergy2 or equivalent reader (Biotek, Winooski VT) using an excitation of 540 nm and an emission of 600 nm. Data was analyzed using GraphPad Prism software (GraphPad, San Diego, CA) to calculate IC50 values.
# [3] = tested on: ATF4 in CCRF-CEM leukemia cells (PERK); test: CCRF-CEM TG ATF4 ELISA, phenotypic assay for cellular inhibition of PERK preactivated by thapsigargin; type: cell-based; details: Homo sapiens; Thapsigargin (1 μM) stimulated CCRF-CEM cells
# Description: CCRF-CEM leukemia cells (catalog #CCL-116) were obtained from the American Type Culture Collection (ATTC, Manassas, VA). Briefly, cells were grown in RPMI-1640 medium supplemented with 10% heat-inactivated fetal bovine serum (Invitrogen, Carlsbad, CA) and 1% Penicillin/Streptomycin/L-Glutamine at 37° C., 5% CO2, and 95% humidity. Cells were expanded until reaching one million cells per mL at which time they were subcultured or harvested for assay use. One million five hundred thousand cells per well in 1 mL complete growth medium were dispensed into 12-well plates and incubated overnight. A serial dilution of test compound was added and cells were incubated at 37° C., 5% CO2, and 95% for three hours, then 1 μM thapsigargin was added and cells were incubated for an additional hour at 37° C., 5% CO2, and 95%. Cells were lysed then ATF4 levels were measured using an ELISA assay (Proteintech, Rosemont, IL). Absorbance was measured at 450 nm and 544 nM using a Synergy2 or equivalent reader (Biotek, Winooski VT). Data was analyzed using PRISM software (Graphpad, San Diego, CA) to calculate IC50 values.
# Sequence of PERK kinase (Q9NZJ5 other isoform, or with tags, fused parts or gaps): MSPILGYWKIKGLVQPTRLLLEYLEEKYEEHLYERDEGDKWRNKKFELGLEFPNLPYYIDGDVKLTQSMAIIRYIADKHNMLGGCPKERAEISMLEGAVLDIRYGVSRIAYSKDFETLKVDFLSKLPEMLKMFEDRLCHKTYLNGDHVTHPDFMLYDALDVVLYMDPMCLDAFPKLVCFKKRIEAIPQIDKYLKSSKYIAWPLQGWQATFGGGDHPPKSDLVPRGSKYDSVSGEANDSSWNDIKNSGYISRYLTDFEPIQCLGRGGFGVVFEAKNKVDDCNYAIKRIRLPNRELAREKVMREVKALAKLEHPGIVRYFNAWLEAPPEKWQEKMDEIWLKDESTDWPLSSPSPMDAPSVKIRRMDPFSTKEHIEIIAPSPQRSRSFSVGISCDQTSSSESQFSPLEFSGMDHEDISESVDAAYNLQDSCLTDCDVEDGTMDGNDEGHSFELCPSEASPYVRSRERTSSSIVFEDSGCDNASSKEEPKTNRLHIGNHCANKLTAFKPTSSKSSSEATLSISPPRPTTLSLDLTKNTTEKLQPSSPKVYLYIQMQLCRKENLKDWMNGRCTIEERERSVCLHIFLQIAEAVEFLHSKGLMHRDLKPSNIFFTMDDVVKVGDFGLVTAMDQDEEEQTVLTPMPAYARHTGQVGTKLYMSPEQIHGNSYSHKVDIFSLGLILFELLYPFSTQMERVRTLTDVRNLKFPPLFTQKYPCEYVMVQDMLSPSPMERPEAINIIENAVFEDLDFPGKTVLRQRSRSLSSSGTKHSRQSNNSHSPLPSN
# Sequence of GCN2 kinase (Q9P2K8 whole entry): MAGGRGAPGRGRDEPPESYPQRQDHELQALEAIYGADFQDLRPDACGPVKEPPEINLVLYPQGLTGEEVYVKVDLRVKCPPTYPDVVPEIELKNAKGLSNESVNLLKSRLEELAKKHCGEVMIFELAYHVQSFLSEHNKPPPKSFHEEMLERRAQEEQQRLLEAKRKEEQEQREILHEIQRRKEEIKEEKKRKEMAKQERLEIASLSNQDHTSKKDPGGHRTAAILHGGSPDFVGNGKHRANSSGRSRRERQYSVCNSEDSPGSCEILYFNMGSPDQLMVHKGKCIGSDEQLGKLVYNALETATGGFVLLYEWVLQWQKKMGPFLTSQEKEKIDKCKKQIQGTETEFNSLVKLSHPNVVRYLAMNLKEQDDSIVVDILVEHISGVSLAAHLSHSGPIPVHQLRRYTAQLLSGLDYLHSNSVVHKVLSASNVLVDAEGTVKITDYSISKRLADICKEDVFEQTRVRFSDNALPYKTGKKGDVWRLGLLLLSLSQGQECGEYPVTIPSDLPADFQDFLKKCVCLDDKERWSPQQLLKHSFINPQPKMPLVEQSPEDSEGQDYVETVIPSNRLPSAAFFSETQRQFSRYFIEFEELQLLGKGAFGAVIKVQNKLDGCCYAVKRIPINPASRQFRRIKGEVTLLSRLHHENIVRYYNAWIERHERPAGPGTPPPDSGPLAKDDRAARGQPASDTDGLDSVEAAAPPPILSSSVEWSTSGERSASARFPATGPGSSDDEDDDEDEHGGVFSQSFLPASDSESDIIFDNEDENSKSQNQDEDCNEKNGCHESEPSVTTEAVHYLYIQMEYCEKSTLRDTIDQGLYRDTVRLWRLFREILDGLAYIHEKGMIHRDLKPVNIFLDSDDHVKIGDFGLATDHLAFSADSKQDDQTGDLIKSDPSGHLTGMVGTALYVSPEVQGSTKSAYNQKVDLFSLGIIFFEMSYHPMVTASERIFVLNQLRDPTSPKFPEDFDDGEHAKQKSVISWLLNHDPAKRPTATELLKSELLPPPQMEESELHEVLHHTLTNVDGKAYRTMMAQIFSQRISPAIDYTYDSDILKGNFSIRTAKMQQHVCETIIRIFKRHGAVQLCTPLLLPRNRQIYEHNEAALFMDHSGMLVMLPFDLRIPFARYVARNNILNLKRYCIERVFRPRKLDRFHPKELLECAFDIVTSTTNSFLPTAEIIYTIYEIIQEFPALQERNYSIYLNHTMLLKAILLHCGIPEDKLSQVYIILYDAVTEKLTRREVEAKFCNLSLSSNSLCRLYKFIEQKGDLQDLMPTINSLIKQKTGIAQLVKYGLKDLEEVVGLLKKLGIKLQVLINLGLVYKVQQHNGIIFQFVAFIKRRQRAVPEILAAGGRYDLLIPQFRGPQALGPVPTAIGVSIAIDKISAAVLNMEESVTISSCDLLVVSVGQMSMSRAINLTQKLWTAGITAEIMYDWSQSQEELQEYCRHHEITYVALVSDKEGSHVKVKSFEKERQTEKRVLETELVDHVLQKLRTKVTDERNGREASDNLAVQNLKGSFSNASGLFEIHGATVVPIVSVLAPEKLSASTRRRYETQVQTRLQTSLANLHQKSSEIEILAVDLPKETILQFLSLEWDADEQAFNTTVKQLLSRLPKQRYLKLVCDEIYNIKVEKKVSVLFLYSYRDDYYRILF
SMILES,IC50 [1] [µM],IC50 (PERK kinase) [µM],IC50 [2] [µM],IC50 (GCN2 kinase) [µM],IC50 (CCRF-CEM leukemia cells) [µM],IC50 [3] [µM]
"CNc1ncc2cc(-c3cccc(NS(=O)(=O)c4cc(Cl)cnc4OC)c3F)c(C)nc2n1 [Example 3, 5-chloro-N-(2-fluoro-3-(7-methyl-2-(methylamino)pyrido[2,3-d]pyrimidin-6-yl)phenyl)-2-methoxypyridine-3-sulfonamide]",≤ 0.1,≤ 0.1,≤ 0.1,≤ 0.1,≤ 0.1,
CNc1ncc2cc(-c3cc(F)cc(NS(=O)(=O)c4cc(Cl)cnc4OC)c3)c(NC)nc2n1 [Example 11],≤ 0.1,0.1 to 0.5,≤ 0.1,≤ 0.1,0.1 to 0.5,1 to 10
CNc1cc2nc(C)c(-c3cc(NS(=O)(=O)c4cc(Cl)cc(CO)c4Cl)c(F)cc3Br)cc2cn1 [Example 14],0.1 to 0.5,0.1 to 0.5,0.5 to 1,≤ 0.1,1 to 10,1 to 10
CNc1ncc2cc(-c3cccc(NS(=O)(=O)c4cc(Cl)cnc4OC)c3)c(NC)nc2n1 [Example 15],≤ 0.1,0.1 to 0.5,0.1 to 0.5,≤ 0.1,0.1 to 0.5,
CNc1ncc2cc(-c3cc(NS(=O)(=O)c4cc(Cl)cnc4OC)c(F)cc3C)c(C)nc2n1 [Example 17],0.1 to 0.5,0.1 to 0.5,1 to 10,0.5 to 1,1 to 10,1 to 10
CNc1cc2nc(C)c(-c3ccc(F)c(NS(=O)(=O)c4cc(Cl)cc(CO)c4Cl)c3)cc2cn1 [Example 19],≤ 0.1,≤ 0.1,≤ 0.1,≤ 0.1,0.1 to 0.5,1 to 10
CNc1cc2nc(C)c(-c3cc(NS(=O)(=O)c4cc(Cl)cc(CO)c4Cl)c(F)cc3F)cc2cn1 [Example 22],≤ 0.1,≤ 0.1,≤ 0.1,≤ 0.1,≤ 0.1,1 to 10
CNc1cc2nc(C)c(-c3cc(F)cc(NS(=O)(=O)c4cc(Cl)cnc4OC)c3)cc2cn1 [Example 23],≤ 0.1,≤ 0.1,≤ 0.1,≤ 0.1,0.1 to 0.5,1 to 10
CNc1ncc2cc(-c3cc(NS(=O)(=O)c4cc(Cl)cnc4OC)cc(F)c3C)c(C)nc2n1 [Example 26],≤ 0.1,≤ 0.1,≤ 0.1,≤ 0.1,≤ 0.1,1 to 10
CNc1ncc2cc(-c3c(F)ccc(NS(=O)(=O)c4cc(Cl)cnc4OC)c3F)c(C)nc2n1 [Example 27],≤ 0.1,≤ 0.1,≤ 0.1,≤ 0.1,≤ 0.1,1 to 10
CNc1ncc2cc(-c3cc(NS(=O)(=O)c4cc(Cl)cnc4OC)ccc3C)cnc2n1 [Example 30],≤ 0.1,0.1 to 0.5,≤ 0.1,≤ 0.1,≤ 0.1,1 to 10
COc1ncc(Cl)cc1S(=O)(=O)Nc1cccc(-c2ccc3nc(N)ncc3c2)c1F [Example 33],≤ 0.1,≤ 0.1,≤ 0.1,≤ 0.1,0.1 to 0.5,1 to 10
COc1ncc(Cl)cc1S(=O)(=O)Nc1cccc(-c2ccc3nc(NC(C)=O)ncc3c2)c1F [Example 35],≤ 0.1,0.1 to 0.5,≤ 0.1,≤ 0.1,≤ 0.1,1 to 10
CNc1ncc2cc(-c3cccc(NS(=O)(=O)c4cc(Cl)cnc4OC)c3F)ccc2n1 [Example 36],≤ 0.1,≤ 0.1,≤ 0.1,≤ 0.1,≤ 0.1,1 to 10
CNc1ncc2cc(-c3cc(NS(=O)(=O)c4cc(Cl)cnc4OC)ccc3F)c(C)nc2n1 [Example 38],≤ 0.1,0.1 to 0.5,0.1 to 0.5,≤ 0.1,0.1 to 0.5,1 to 10
CNc1ncc2cc(-c3cc(NS(=O)(=O)c4cc(Cl)cnc4OC)ccc3F)c(NC)nc2n1 [Example 39],≤ 0.1,0.1 to 0.5,0.1 to 0.5,≤ 0.1,0.1 to 0.5,1 to 10
CNc1cc2nc(C)c(-c3cc(NS(=O)(=O)c4cc(Cl)cnc4OC)ccc3F)cc2cn1 [Example 44],≤ 0.1,≤ 0.1,≤ 0.1,≤ 0.1,≤ 0.1,1 to 10
CNc1ncc2cc(-c3cc(F)cc(NS(=O)(=O)c4cc(Cl)cnc4OC)c3)c(C)nc2n1 [Example 65],≤ 0.1,0.1 to 0.5,0.1 to 0.5,,0.1 to 0.5,1 to 10
CNc1ncc2cc(-c3cccc(NS(=O)(=O)c4cc(F)cc(CO)c4Cl)c3F)c(NC)nc2n1 [Example 177],,0.1 to 0.5,,≤ 0.1,≤ 0.1,0.1 to 0.5
CNc1ncc2cc(-c3cccc(NS(=O)(=O)c4cc(F)cc(CO)c4F)c3F)c(NC)nc2n1 [Example 178],,0.1 to 0.5,,≤ 0.1,≤ 0.1,1 to 10
